According to PubChem BioAssay AID2060488 (Molecular Pharmacology Branch, DTP, NCI, 2025):
pIC50: −log10 of the molar value.

Test system: 966289-007-R4-J1-PDC complex spheroid viability
Experiment: Anticancer human tumor 966289-007-R4-J1-PDC patient-derived pancreatic adenocarcinoma cell line growth inhibition [GQUAD]
Details: for pIC50: curve of first compound; for viability, T/C: stronger effect = lower value
Procedure, shortened: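 Viability of tumor cells grown as complex spheroids with endothelial and stromal cells, exposed to drug combinations. Top concentration at or near clinical Cmax (else 10 microM), diluted in half-log increments.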

[1] = second compound 0.0316 µM, first compound 0.0316 µM
[2] = second compound 0.0316 µM, first compound 0.316 µM
[3] = second compound 0.1 µM, first compound 0.0316 µM
[4] = second compound 0.1 µM, first compound 0.316 µM
[5] = second compound 0.316 µM, first compound 0.0316 µM
[6] = second compound 0.316 µM, first compound 0.316 µM
[7] = second compound 1 µM, first compound 0.0316 µM
[8] = second compound 1 µM, first compound 0.316 µM
[9] = second compound 3.16 µM, first compound 0.0316 µM
[10] = second compound 3.16 µM, first compound 0.316 µM
[11] = second compound 10 µM, first compound 0.0316 µM
[12] = second compound 10 µM, first compound 0.316 µM
[13] = second compound 0.0316 µM, first compound 0.000999 µM
[14] = second compound 0.0316 µM, first compound 0.00316 µM
[15] = second compound 0.0316 µM, first compound 0.00999 µM
[16] = second compound 0.0316 µM, first compound 0.0999 µM
[17] = second compound 0.1 µM, first compound 0.000999 µM
[18] = second compound 0.1 µM, first compound 0.00316 µM
[19] = second compound 0.1 µM, first compound 0.00999 µM
[20] = second compound 0.1 µM, first compound 0.0999 µM
[21] = second compound 0.316 µM, first compound 0.000999 µM
[22] = second compound 0.316 µM, first compound 0.00316 µM
[23] = second compound 0.316 µM, first compound 0.00999 µM
[24] = second compound 0.316 µM, first compound 0.0999 µM
[25] = second compound 1 µM, first compound 0.000999 µM
[26] = second compound 1 µM, first compound 0.00316 µM
[27] = second compound 1 µM, first compound 0.00999 µM
[28] = second compound 1 µM, first compound 0.0999 µM
[29] = second compound 3.16 µM, first compound 0.000999 µM
[30] = second compound 3.16 µM, first compound 0.00316 µM
[31] = second compound 3.16 µM, first compound 0.00999 µM
[32] = second compound 3.16 µM, first compound 0.0999 µM
[33] = second compound 10 µM, first compound 0.000999 µM
[34] = second compound 10 µM, first compound 0.00316 µM
[35] = second compound 10 µM, first compound 0.00999 µM
[36] = second compound 10 µM, first compound 0.0999 µM
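Also: spheroids exposed to the agents for seven days before readout.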
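For viability, T/C in this document: percent viability relative to DMSO vehicle control wells taken as 100%.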

C=CC(=O)N1CCN(c2nc(=O)n(-c3c(C)ccnc3C(C)C)c3nc(-c4c(O)cccc4F)c(F)cc23)C(C)C1 (stereo not drawn) + CN(C)c1ccc(Nc2c3ccc(NC(=O)CCN4CCCC4)cc3nc3cc(NC(=O)CCN4CCCC4)ccc23)cc1
pIC50 (second compound 0.0316 µM): < 5.00 | pIC50 (second compound 0.1 µM): < 5.00 | pIC50 (second compound 0.316 µM): < 5.00 | pIC50 (second compound 1 µM): < 5.00 | pIC50 (second compound 3.16 µM): < 5.00 | pIC50 (second compound 10 µM): 5.17 | viability, T/C [1]: 107% | viability, T/C (second compound 0.0316 µM, first compound 0.1 µM): 99.6% | viability, T/C [2]: 106% | viability, T/C (second compound 0.0316 µM, first compound 1 µM): 100% | viability, T/C (second compound 0.0316 µM, first compound 3.16 µM): 106% | viability, T/C (second compound 0.0316 µM, first compound 10 µM): 110% | viability, T/C [3]: 101% | viability, T/C (second compound 0.1 µM, first compound 0.1 µM): 105% | viability, T/C [4]: 105% | viability, T/C (second compound 0.1 µM, first compound 1 µM): 104% | viability, T/C (second compound 0.1 µM, first compound 3.16 µM): 102% | viability, T/C (second compound 0.1 µM, first compound 10 µM): 113% | viability, T/C [5]: 96% | viability, T/C (second compound 0.316 µM, first compound 0.1 µM): 104% | viability, T/C [6]: 106% | viability, T/C (second compound 0.316 µM, first compound 1 µM): 102% | viability, T/C (second compound 0.316 µM, first compound 3.16 µM): 97.1% | viability, T/C (second compound 0.316 µM, first compound 10 µM): 111% | viability, T/C [7]: 94.3% | viability, T/C (second compound 1 µM, first compound 0.1 µM): 99.8% | viability, T/C [8]: 102% | viability, T/C (second compound 1 µM, first compound 1 µM): 94.8% | viability, T/C (second compound 1 µM, first compound 3.16 µM): 108% | viability, T/C (second compound 1 µM, first compound 10 µM): 108% | viability, T/C [9]: 99.6% | viability, T/C (second compound 3.16 µM, first compound 0.1 µM): 101% | viability, T/C [10]: 107% | viability, T/C (second compound 3.16 µM, first compound 1 µM): 105% | viability, T/C (second compound 3.16 µM, first compound 3.16 µM): 106% | viability, T/C (second compound 3.16 µM, first compound 10 µM): 111% | viability, T/C [11]: 105% | viability, T/C (second compound 10 µM, first compound 0.1 µM): 101% | viability, T/C [12]: 108% | viability, T/C (second compound 10 µM, first compound 1 µM): 105% | viability, T/C (second compound 10 µM, first compound 3.16 µM): 106% | viability, T/C (second compound 10 µM, first compound 10 µM): 21.7%

CC[C@@]1(O)C(=O)OCc2c1cc1n(c2=O)Cc2cc3c(CN(C)C)c(O)ccc3nc2-1 + CN(C)c1ccc(Nc2c3ccc(NC(=O)CCN4CCCC4)cc3nc3cc(NC(=O)CCN4CCCC4)ccc23)cc1
pIC50 (second compound 0.0316 µM): 7.30 | pIC50 (second compound 0.1 µM): 7.30 | pIC50 (second compound 0.316 µM): 7.31 | pIC50 (second compound 1 µM): 7.27 | pIC50 (second compound 3.16 µM): 7.29 | pIC50 (second compound 10 µM): 7.61 | viability, T/C [13]: 100% | viability, T/C [14]: 96.9% | viability, T/C [15]: 92.9% | viability, T/C [1]: 82.1% | viability, T/C [16]: 0.84% | viability, T/C [2]: 0.56% | viability, T/C [17]: 102% | viability, T/C [18]: 98% | viability, T/C [19]: 103% | viability, T/C [3]: 83.5% | viability, T/C [20]: 0.82% | viability, T/C [4]: 0.54% | viability, T/C [21]: 101% | viability, T/C [22]: 96.1% | viability, T/C [23]: 107% | viability, T/C [5]: 79% | viability, T/C [24]: 0.87% | viability, T/C [6]: 0.83% | viability, T/C [25]: 92.1% | viability, T/C [26]: 96.5% | viability, T/C [27]: 102% | viability, T/C [7]: 91% | viability, T/C [28]: 0.86% | viability, T/C [8]: 0.61% | viability, T/C [29]: 96.1% | viability, T/C [30]: 98.2% | viability, T/C [31]: 110% | viability, T/C [9]: 84.3% | viability, T/C [32]: 1.25% | viability, T/C [10]: 0.55% | viability, T/C [33]: 104% | viability, T/C [34]: 89.2% | viability, T/C [35]: 110% | viability, T/C [11]: 36.2% | viability, T/C [36]: 0.73% | viability, T/C [12]: 0.68%

CCc1c2c(nc3ccc(O)cc13)-c1cc3c(c(=O)n1C2)COC(=O)[C@]3(O)CC + CN(C)c1ccc(Nc2c3ccc(NC(=O)CCN4CCCC4)cc3nc3cc(NC(=O)CCN4CCCC4)ccc23)cc1
pIC50 (second compound 0.0316 µM): > 9.00 | pIC50 (second compound 0.1 µM): > 9.00 | pIC50 (second compound 0.316 µM): > 9.00 | pIC50 (second compound 1 µM): > 9.00 | pIC50 (second compound 3.16 µM): > 9.00 | pIC50 (second compound 10 µM): > 9.00 | viability, T/C [13]: 21.2% | viability, T/C [14]: 1.29% | viability, T/C [15]: 0.59% | viability, T/C [1]: 0.58% | viability, T/C [16]: 0.44% | viability, T/C [2]: 0.43% | viability, T/C [17]: 22.3% | viability, T/C [18]: 1.11% | viability, T/C [19]: 0.72% | viability, T/C [3]: 1.03% | viability, T/C [20]: 0.43% | viability, T/C [4]: 0.56% | viability, T/C [21]: 18.6% | viability, T/C [22]: 1.04% | viability, T/C [23]: 1.15% | viability, T/C [5]: 0.5% | viability, T/C [24]: 0.36% | viability, T/C [6]: 0.44% | viability, T/C [25]: 22.2% | viability, T/C [26]: 1.12% | viability, T/C [27]: 0.68% | viability, T/C [7]: 0.53% | viability, T/C [28]: 1.55% | viability, T/C [8]: 0.4% | viability, T/C [29]: 17.7% | viability, T/C [30]: 1.42% | viability, T/C [31]: 0.73% | viability, T/C [9]: 0.58% | viability, T/C [32]: 0.38% | viability, T/C [10]: 0.97% | viability, T/C [33]: 9.4% | viability, T/C [34]: 0.87% | viability, T/C [35]: 0.74% | viability, T/C [11]: 0.39% | viability, T/C [36]: 0.62% | viability, T/C [12]: 0.22%

Cn1ncnc1[C@H]1c2n[nH]c(=O)c3cc(F)cc(c23)N[C@@H]1c1ccc(F)cc1 + CN(C)c1ccc(Nc2c3ccc(NC(=O)CCN4CCCC4)cc3nc3cc(NC(=O)CCN4CCCC4)ccc23)cc1
pIC50 (second compound 0.0316 µM): 6.79 | pIC50 (second compound 0.1 µM): 6.79 | pIC50 (second compound 0.316 µM): 6.77 | pIC50 (second compound 1 µM): 6.86 | pIC50 (second compound 3.16 µM): 6.98 | pIC50 (second compound 10 µM): 7.32 | viability, T/C [13]: 107% | viability, T/C [14]: 101% | viability, T/C [15]: 109% | viability, T/C [1]: 104% | viability, T/C [16]: 71.7% | viability, T/C [2]: 19% | viability, T/C [17]: 105% | viability, T/C [18]: 101% | viability, T/C [19]: 105% | viability, T/C [3]: 105% | viability, T/C [20]: 75.2% | viability, T/C [4]: 16.9% | viability, T/C [21]: 95.1% | viability, T/C [22]: 99.7% | viability, T/C [23]: 104% | viability, T/C [5]: 107% | viability, T/C [24]: 73.3% | viability, T/C [6]: 21.7% | viability, T/C [25]: 95.9% | viability, T/C [26]: 97.2% | viability, T/C [27]: 104% | viability, T/C [7]: 106% | viability, T/C [28]: 62.5% | viability, T/C [8]: 16.9% | viability, T/C [29]: 91.5% | viability, T/C [30]: 109% | viability, T/C [31]: 109% | viability, T/C [9]: 104% | viability, T/C [32]: 51.2% | viability, T/C [10]: 13% | viability, T/C [33]: 103% | viability, T/C [34]: 104% | viability, T/C [35]: 102% | viability, T/C [11]: 69.1% | viability, T/C [36]: 15% | viability, T/C [12]: 5.65%
